Data on three compounds can be found in patent publication US8269017B2, “Compounds for the treatment of proliferative disorders” (Synta Pharmaceuticals Corporation, priority 2005, dated 2012).

Like-named read-outs stand apart in the source and are kept apart here.

The term IC50 denotes the concentration that gives 50% inhibition.

One test relates to MES-SA (uterine sarcoma). Put plainly: In vitro cytotoxicity, MTS assay, MES-SA. It is filed as cell-based, human. Particulars: Homo sapiens, MES-SA (Uterine Carcinoma). As to the method: (§1) The in vitro cytotoxicity of the compounds of the invention was determined in the following human cell lines: HL-60 (T-cell leukemia), MDA-435 and MCF-7 (human breast carcinoma), NCI-H460 and H29 (colon carcinoma), DU145 (prostate carcinoma), and MES-SA and MES-SA/DX5 (uterine sarcoma). MES-SA is a model of uterine sarcoma, and the cell are sensitive to a number of chemotherapeutic agents including doxorubicin, dactinomycin, mitomycin C, taxol and bleomycin, but resistant to vinblastine and cisplatin. MES-SA/Dx5 was established in the presence of increasing concentrations of doxorubicin. […] All cells were purchased from ATCC.
(§2) The cell lines were maintained in RPMI1640 (GIBCO) supplemented with 10% FCS, 100 units/mL penicillin, 100 ug/ml streptomycin, and 2 mM L-glutamine. Cells were split every third day and diluted to a concentration of 2×10^5 cells/mL one day before the experiment was performed. All experiments were performed on exponentially growing cell cultures. Cell densities were 2.5×10^4 cells/mL in all experiments.
(§3) Compounds of the invention were prepared by dissolving the compound at a concentration of 10 mM in 100% DMSO. Final concentrations 10, 1, 0.1, 0.01 and 0.001 μM were obtained by diluting the stock solution directly into the tissue culture medium.
Background: Tetrazolium assays rely on reduction of a dye to a coloured formazan, in cell work by metabolically active cells.

The subject of test [1] is primary human umbilical vein endothelium cells (HUVEC cells). The test is described as follows: Microtubule depolymerization in HUVEC cells (anti-tubulin immunofluorescence). Particulars: 24 hr. The test is classed as cell-based. The protocol: (§4) Depolymerizing microtubules not only kills dividing tumor cells but also induces disruption of newly generated blood vessels in tumor. The potency of Compound 249 in depolymerizing microtubules was examined in Africa green monkey kidney fibroblasts (CV1 cells) and primary human umbilical vein endothelium cells (HUVEC cells). The cells were treated with drugs (1, 10, 100, and 1000 nM for CV-1 and 1, 5, 10, 50, 100 nM for HUVEC) for 24 hr and fixed with 3% paraformaldehyde followed by cold methanol treatment to preserve both microtubule structures and depolymerized tubulin in the cytoplasm. The cells were stained with anti-tubulin antibody and subsequently fluorescent conjugated secondary antibody to visualize microtubule networks or cytoplasmic tubulin with fluorescent microscopy. As shown in FIG. 20 and FIG. 21, Compound 249 completely depolymerizes MT in a considerable proportion of CV1 cells at 10 nM and HUVEC cells at 1 nM (about 10% for both cell lines; data not shown). At 100 nM for CV1 and 5 nM for HUVEC cells, microtubules were completely depolymerized in nearly 100% cells. Tubulin staining in these cells was shown as cytoplasmic location and no microtubule structures were found in those cells. […] Compound 249 is a potent microtubule depolymerizing drug and HUVEC cells are extremely sensitive to Compound 249's anti-microtubule effect.

For a further test, the system named is HL-60 (T-cell leukemia). The test is described as follows: In vitro cytotoxicity, MTS assay, HL-60. Particulars: Homo sapiens. It is filed as cell-based, human. The protocol: as §1, §2, §3
Test [2] relates to MES-SA/DX5 (uterine sarcoma, MDR-1). The test is described as follows: cells. The test is classed as cell-based. The settings on record: Homo sapiens, MES/DX5 (MDR-1), MTS assay. The protocol:
as §1, §2, §3

For test [3], the system named is Africa green monkey kidney fibroblasts (CV1 cells). The test is described as follows: Microtubule depolymerization in CV-1 cells (anti-tubulin immunofluorescence). It is filed as cell-based. The settings on record: 24 hr. The protocol: as §4
Test [4] relates to MCF-7 (human breast carcinoma). The test is described as follows: In vitro cytotoxicity, MTS assay, MCF-7. It is filed as cell-based. Particulars: MCF7, MCF-7 (Breast Cancer), 72 hours. The protocol:
as §1, §2, §3

A further test has as its system MDA-435 cells. The test is described as follows: Cell cycle analysis in MDA-435 cells. The test is classed as cell-based, human. The settings on record: 20 h, Taxol 30 nM, Comp. 1 100 nM, Comp. 2 500 nM, Comp. 3 10 nM, Comp. 6 800 mM (so in the source), Comp. 46 50 nM. As to the method:
MDA-435 cells were cultured in 6-well plates at 1×10^6 cells/well and were untreated (negative control), treated with Taxol (positive control), or treated with a compound of the invention at 37° C. for 20 h. The cells were detached with 1× trypsin and washed one time with PBS. Cycle TEST PLUS kit (BD PharMingen, Cat #340242) was used to stain the cells. Cell cycle was analyzed with FACScomp program (BS PharMingen).

Test [5] relates to NCI-H460 (colon carcinoma). Put plainly: In vitro cytotoxicity, MTS assay, NCI-H460. The test is classed as cell-based. The settings on record: Homo sapiens, 72 hours. The protocol: as §1, §2, §3
The test system of a further test is H29 (colon carcinoma). The test is described as follows: In vitro cytotoxicity, MTS assay, H29. The test is classed as cell-based. The settings on record: Homo sapiens, 72 hours. The protocol:
as §1, §2, §3

A further test deals with MDA-435. The test is described as follows: Cytotoxicity in MDA-435 tumor cells (Cell Counting Kit 8). The settings on record: Homo sapiens, MDA435, MDA-435 cells, 70 h. The test is classed as cell-based. As to the method:
Tumor cell line, MDA-435, was seeded in 96-well plates at 1×10^4 cells/well in DMEM medium and treated with compounds at different concentrations. Taxol was used as a positive control. The cells were incubated at 37° C. for 70 h. Viability of the cells was measured with Cell Counting Kit 8 (Dojindo, Cat #CK04). IC50 of the compounds was determined by Five-Parameter Logistic equation.

Test [6] relates to α-tubulin-YFP labeled microtubules in MCF7-α-tubulin-YFP cells. Put plainly: Inhibition of tubulin polymerization in α-tubulin-YFP expressing cells (fluorescence imaging). The test is classed as cell-based. Particulars: MCF7-α-tubulin-YFP cells treated with 0.1 μM Taxol.
Method: Living cells were examined using a fluorescent microscope for α-tubulin-YFP expression.
CHO-α-tubulin-YFP or MCF7-α-tubulin-YFP cells were cultured in 2-well chambered cover-slips (Labtek (Campbell, Calif.) or Fisher Scientific) for 24 hours before treatment with a compound of the invention. For comparison of the effects of treatment on α-tubulin-YFP labeled microtubules with the compounds of the invention, CHO-α-tubulin-YFP or MCF7-α-tubulin-YFP cells were treated with the a compound of the invention, Taxol or equivalent concentrations of DMSO-containing media for various time periods before imaging. Tubulin-YFP fluorescence in living cells or fixed cells was captured using a standard filter for FITC and objectives of 20× or 60× magnification on a Nikon TE300 microscope with a Leica DC50 color digital camera (Leica, Bannockburn, Ill.) or a CoolSnap HQ monochrome CCD camera (Photonetrics, Tucson, Ariz.). The Leica DC50 and CoolSnapHQ cameras were controlled with Leica DC50 software and MetaVue/MetaMorph software, respectively (Universal Imaging Corp, Downingtown, Pa.).
The subject of the next test is SB cells. Put plainly: Induction of apoptosis in SB cells (Annexin V/PI, FACS). The test is classed as cell-based. Particulars: 24 h. As to the method:
SB cells (2×10^5 cells/mL) were cultured in 12-well plates (2 mL/well) and were left untreated (negative control), treated with Taxol (positive control), or treated with a compound of the invention for 24 h at 37° C. After treatment, the cells were washed one time with 1×PBS and stained with FITC labeled anti-Annexin V and PI (10 μg/ml) for 15 min at room temperature. The cells were analyzed by FACSCalibur (Becton Dickinson).

Test [7] deals with DU145 (prostate carcinoma). The test is described as follows: In vitro cytotoxicity, MTS assay, DU145. The settings on record: Homo sapiens, DU-145, 72 hours. It is filed as cell-based. The protocol:
as §1, §2, §3

The subject of test [8] is MDA-435 (human breast carcinoma). The test is described as follows: In vitro cytotoxicity, MTS assay, MDA-435. It is filed as cell-based. The settings on record: MDA435, MDA-435 (Breast Cancer), 72 hours. As to the method: as §1, §2, §3
The test system of test [9] is human tumor cell line MDA-MB-435S. The test is described as follows: Nude mouse xenograft, MDA-MB-435S (Example 9). It is filed as in vivo. The settings on record: i.v., 3 times per week. The protocol:
FBS was obtained from ATCC and all other reagents were obtained from Invitrogen Corp. (Carlsbad, Calif., USA). […] To inactivate the trypsin, 5 mL of growth media was added and then the contents of the flask were centrifuged to pellet the cells. The supernatant was aspirated and the cell pellet was resuspended in 10 mL of growth media and the cell number determined using a hemocytometer.
Animals were housed 4-5/cage in micro-isolators, with a 12 hr/12 hr light/dark cycle, acclimated for at least 1 week prior to use and fed normal laboratory chow ad libitum.

Take `COc1ccc(-c2cnoc2-c2cc(OC)c(OC)c(OC)c2)cc1N` [Compound 249, 2-methoxy-5-(5-(3,4,5-trimethoxyphenyl)isoxazol-4-yl)aniline]: the half-maximal inhibitory concentration (IC50) stood at 1 nM in the test with MES-SA (uterine sarcoma) (MES-SA, 72 h); 1 nM with HL-60 (T-cell leukemia) (HL-60, 72 h, HL60 (Leukemia)); 1 nM in test [2] (MDR1, 72 h). In addition, the microtubule structure entry in [1] (1 nM) is given as “Fragmented microtubules were found”. The “proportion of cells with completely depolymerized microtubules” value in test [1] (1 nM) is reported as “about 10%”; in test [1] (5 nM) it was approximately 100%; in test [3] (10 nM) it was “about 10%”; in test [3] (100 nM), approximately 100%.

Consider `CC(=O)O[C@H]1C(=O)[C@@]2(C)[C@H]([C@H](OC(=O)c3ccccc3)[C@]3(O)C[C@H](OC(=O)[C@H](O)[C@@H](NC(=O)c4ccccc4)c4ccccc4)C(C)=C1C3(C)C)[C@]1(OC(C)=O)CO[C@@H]1C[C@@H]2O` [Taxol, reference compound], for which the IC50 was 5 nM in test [4]; 5 nM in [5]; 10 nM in the test with H29 (colon carcinoma); 16 nM in the test with MDA-435; 5 nM in the test on MES-SA (uterine sarcoma) (72 hours, read-out: IC50); 5 nM in test [7]. The half-maximal inhibitory concentration (IC50) is 5 nM in the test with HL-60 (T-cell leukemia) (HL-60, HL60 (Leukemia), 72 hours, read-out: IC50); 2 nM in [8]; 10000 nM in test [2] (MDR1, 72 hours, read-out: IC50). The “Apoptotic Population (%)” value in the test on MDA-435 cells is given as 16.17%. In addition, in the test with MDA-435 cells, the “G0/G1 Phase (%)” value came out at 19.12%. The “G2/M Phase (%)” value in the test with MDA-435 cells was 32.32%. The “S Phase (%)” value in the test with MDA-435 cells came out at 32.93%. For the same compound, the “Tubulin-YFP signal pattern in live cells” value in [6] is recorded as “microtubule bundle formation”. In the test with SB cells (1 μM), the “% Apoptotic Cells Gated” value stood at 17.84%. The cytotoxicity at 1 µM with SB cells (read-out: % Dead Cells Gated) came to 12.5%. The viability at 1 µM with SB cells (read-out: % Live Cells Gated) was determined as 63.7%.

As for `CC(=O)O[C@H]1C(=O)[C@@]2(C)[C@H]([C@H](OC(=O)c3ccccc3)[C@]3(O)C[C@H](OC(=O)[C@H](O)[C@@H](NC(=O)c4ccccc4)c4ccccc4)C(C)=C1C3(C)C)[C@]1(OC(C)=O)CO[C@@H]1C[C@@H]2O` [paclitaxel, Paclitaxel], the tumor regression result in test [9] (paclitaxel at 7.5 mg/kg body weight, 10 doses) is on record as “did not”. Also, the “tumor growth compared to vehicle” value in test [9] (paclitaxel at 7.5 mg/kg) is “decreased tumor growth”.
